Data reported in publication PMC8698454, “Anti-Colonization Effect of Au Surfaces with Self-Assembled Molecular Monolayers Functionalized with Antimicrobial Peptides on S. epidermidis” (Antibiotics, 2021).
In brackets after ≈: the same amount, converted by molar mass. Read-outs that look alike come from different tables or passages of the source. Where a SMILES comes first, the peptide text is derived from it. [ ]: non-standard residue; d: D form. Bip = N[C@@H](Cc1ccc(-c2ccccc2)cc1)C(=O)O; Lys(N3) = [N-]=[N+]=NCCCC[C@H](N)C(=O)O

Experiments:
Format in all cases: cell-based
[1] = test system: Pseudomonas aeruginosa ATCC 27853; details: for Antimicrobial Activity (MIC) P. aeruginosa: ATCC 27853; for MIC P. aeruginosa ATCC 27853: Table S3
Method: (§1) The minimal inhibitory concentration (MIC) of peptides 1a, 1b, 2a, and 2b were determined by broth microdilution according to the Clinical Laboratory Standard Institute (CLSI) method […]-A9. The MICs of the peptides 1c, 1d, 2c, and 2d were determined by broth dilution according to the European Committee for Antimicrobial Susceptibility Testing (EUCAST). Final concentrations of 0.5-256 μg/mL were tested against a panel of reference bacteria-S. aureus (ATCC 9144), S. epidermidis (1457), E. coli (ATCC 25922), and P. aeruginosa (ATCC 27853). Each strain was tested in biological triplicate. The MIC values were defined as the lowest concentration of the peptides resulting in no visual growth.

[2] = test system: Staphylococcus epidermidis 1457; details: for MIC S. epidermidis 1457: Table S3
Method: as §1

[3] = test system: Staphylococcus aureus ATCC 9144; details: for Antimicrobial Activity (MIC) S. aureus: ATCC 9144; for MIC S. aureus ATCC 9144: Table S3
Method: as §1

[4] = test system: Escherichia coli ATCC 25922; details: for Antimicrobial Activity (MIC) E. coli: ATCC 25922; for MIC E. coli ATCC 25922: Table S3
Method: as §1

[5] = technical replicate 1, biological replicate BR1
[6] = technical replicate 1, biological replicate BR2
[7] = technical replicate 1, biological replicate BR3
[8] = technical replicate 2, biological replicate BR1
[9] = technical replicate 2, biological replicate BR2
[10] = technical replicate 2, biological replicate BR3
[11] = technical replicate 3, biological replicate BR1
[12] = technical replicate 3, biological replicate BR2
[13] = technical replicate 3, biological replicate BR3
[14] = broth microdilution CLSI M07-A9 (1a,1b,2a,2b) or broth dilution EUCAST (1c,1d,2c,2d), 0.5-256 µg/mL tested, biological triplicate, no visual growth
[15] = strain 1457, broth microdilution CLSI M07-A9 (1a,1b,2a,2b) or broth dilution EUCAST (1c,1d,2c,2d), 0.5-256 µg/mL tested, biological triplicate, no visual growth
[16] = broth microdilution CLSI M07-A9 (1a,1b,2a,2b) or broth dilution EUCAST (1c,1d,2c,2d), 0.5-256 µg/mL tested, biological triplicate, lowest concentration with no visual growth

Row | Compound | MIC P. aeruginosa ATCC 27853 [1, 5] [µg/mL] | MIC P. aeruginosa ATCC 27853 [1, 6] [µg/mL] | MIC P. aeruginosa ATCC 27853 [1, 7] [µg/mL] | MIC P. aeruginosa ATCC 27853 [1, 8] [µg/mL] | MIC P. aeruginosa ATCC 27853 [1, 9] [µg/mL] | MIC P. aeruginosa ATCC 27853 [1, 10] [µg/mL] | MIC P. aeruginosa ATCC 27853 [1, 11] [µg/mL] | MIC P. aeruginosa ATCC 27853 [1, 12] [µg/mL] | MIC P. aeruginosa ATCC 27853 [1, 13] [µg/mL] | MIC S. epidermidis 1457 [2, 5] [µg/mL] | MIC S. epidermidis 1457 [2, 6] [µg/mL] | MIC S. epidermidis 1457 [2, 7] [µg/mL] | MIC S. epidermidis 1457 [2, 8] [µg/mL] | MIC S. epidermidis 1457 [2, 9] [µg/mL] | MIC S. epidermidis 1457 [2, 10] [µg/mL] | MIC S. epidermidis 1457 [2, 11] [µg/mL] | MIC S. epidermidis 1457 [2, 12] [µg/mL] | MIC S. epidermidis 1457 [2, 13] [µg/mL] | MIC S. aureus ATCC 9144 [3, 5] [µg/mL] | MIC S. aureus ATCC 9144 [3, 6] [µg/mL] | further results
1 | [N-]=[N+]=NCCCC[C@H](NC(=O)[C@H](Cc1ccccc1)NC(=O)[C@H](CCCNC(=N)N)NC(=O)[C@H](Cc1ccc(-c2ccccc2)cc1)NC(=O)[C@H](Cc1ccc(-c2ccccc2)cc1)NC(=O)[C@@H](N)CCCNC(=N)N)C(N)=O [2c] (H-R[Bip][Bip]RF[Lys(N3)]-NH2) | 8 (≈ 7.43 µM) | 8 (≈ 7.43 µM) | 16 (≈ 14.9 µM) | 16 (≈ 14.9 µM) | 16 (≈ 14.9 µM) | 16 (≈ 14.9 µM) | 16 (≈ 14.9 µM) | 8 (≈ 7.43 µM) | 16 (≈ 14.9 µM) | 8 (≈ 7.43 µM) | 4 (≈ 3.71 µM) | 8 (≈ 7.43 µM) | 4 (≈ 3.71 µM) | 4 (≈ 3.71 µM) | 8 (≈ 7.43 µM) | 4 (≈ 3.71 µM) | 4 (≈ 3.71 µM) | 8 (≈ 7.43 µM) | 8 (≈ 7.43 µM) | 4 (≈ 3.71 µM) | Antimicrobial Activity (MIC) P. aeruginosa [1]: 16 µg/mL; Antimicrobial Activity (MIC) S. epidermidis [2]; 1457: 4 µg/mL; Antimicrobial Activity (MIC) S. aureus [3]: 8 µg/mL; MIC S. aureus ATCC 9144 [3, 7]: 8 µg/mL (≈ 7.43 µM); MIC S. aureus ATCC 9144 [3, 8]: 8 µg/mL (≈ 7.43 µM); MIC S. aureus ATCC 9144 [3, 9]: 8 µg/mL (≈ 7.43 µM); MIC S. aureus ATCC 9144 [3, 10]: 8 µg/mL (≈ 7.43 µM); MIC S. aureus ATCC 9144 [3, 11]: 8 µg/mL (≈ 7.43 µM); MIC S. aureus ATCC 9144 [3, 12]: 4 µg/mL (≈ 3.71 µM); MIC S. aureus ATCC 9144 [3, 13]: 8 µg/mL (≈ 7.43 µM); Antimicrobial Activity (MIC) E. coli [4]: 8 µg/mL; MIC E. coli ATCC 25922 [4, 5]: 8 µg/mL (≈ 7.43 µM); MIC E. coli ATCC 25922 [4, 6]: 8 µg/mL (≈ 7.43 µM); MIC E. coli ATCC 25922 [4, 7]: 16 µg/mL (≈ 14.9 µM); MIC E. coli ATCC 25922 [4, 8]: 8 µg/mL (≈ 7.43 µM); MIC E. coli ATCC 25922 [4, 9]: 8 µg/mL (≈ 7.43 µM); MIC E. coli ATCC 25922 [4, 10]: 16 µg/mL (≈ 14.9 µM); MIC E. coli ATCC 25922 [4, 11]: 8 µg/mL (≈ 7.43 µM); MIC E. coli ATCC 25922 [4, 12]: 16 µg/mL (≈ 14.9 µM); MIC E. coli ATCC 25922 [4, 13]: 8 µg/mL (≈ 7.43 µM)
2 | N3-PEG400-RBBRF [2b, azidopeptide N3-PEG400-RBBRF, B = biphenylalanine, amidated C-terminus] | 128 | 256 | 256 | 128 | 256 | 256 | 128 | 256 | 256 | 16 | 16 | 16 | 16 | 16 | 16 | 16 | 16 | 16 | 16 | 32 | Antimicrobial Activity (MIC) P. aeruginosa [1, 14]: 256 µg/mL; Antimicrobial Activity (MIC) S. epidermidis [2, 15]: 16 µg/mL; Antimicrobial Activity (MIC) S. aureus [3, 16]: 32 µg/mL; MIC S. aureus ATCC 9144 [3, 7]: 16 µg/mL; MIC S. aureus ATCC 9144 [3, 8]: 16 µg/mL; MIC S. aureus ATCC 9144 [3, 9]: 32 µg/mL; MIC S. aureus ATCC 9144 [3, 10]: 32 µg/mL; MIC S. aureus ATCC 9144 [3, 11]: 16 µg/mL; MIC S. aureus ATCC 9144 [3, 12]: 32 µg/mL; MIC S. aureus ATCC 9144 [3, 13]: 32 µg/mL; Antimicrobial Activity (MIC) E. coli [4, 14]: 128 µg/mL; MIC E. coli ATCC 25922 [4, 5]: 128 µg/mL; MIC E. coli ATCC 25922 [4, 6]: 128 µg/mL; MIC E. coli ATCC 25922 [4, 7]: 128 µg/mL; MIC E. coli ATCC 25922 [4, 8]: 128 µg/mL; MIC E. coli ATCC 25922 [4, 9]: 128 µg/mL; MIC E. coli ATCC 25922 [4, 10]: 128 µg/mL; MIC E. coli ATCC 25922 [4, 11]: 128 µg/mL; MIC E. coli ATCC 25922 [4, 12]: 128 µg/mL; MIC E. coli ATCC 25922 [4, 13]: 128 µg/mL
3 | [N-]=[N+]=NCCCC[C@@H]1NC(=O)[C@H](Cc2ccccc2)NC(=O)[C@H](CCCNC(=N)N)NC(=O)[C@H](Cc2ccc(-c3ccccc3)cc2)NC(=O)[C@H](Cc2ccc(-c3ccccc3)cc2)NC(=O)[C@H](CCCNC(=N)N)NC1=O [2d] (cyclo(R[Bip][Bip]RF[Lys(N3)])) | 256 (≈ 241 µM) | 256 (≈ 241 µM) | 256 (≈ 241 µM) | 256 (≈ 241 µM) | 256 (≈ 241 µM) | 256 (≈ 241 µM) | 256 (≈ 241 µM) | 256 (≈ 241 µM) | 256 (≈ 241 µM) | 4 (≈ 3.77 µM) | 2 (≈ 1.89 µM) | 2 (≈ 1.89 µM) | 2 (≈ 1.89 µM) | 2 (≈ 1.89 µM) | 2 (≈ 1.89 µM) | 2 (≈ 1.89 µM) | 2 (≈ 1.89 µM) | 2 (≈ 1.89 µM) | 8 (≈ 7.55 µM) | 4 (≈ 3.77 µM) | Antimicrobial Activity (MIC) P. aeruginosa [1]: 256 µg/mL; Antimicrobial Activity (MIC) S. epidermidis [2]; 1457: 2 µg/mL; Antimicrobial Activity (MIC) S. aureus [3]: 4 µg/mL; MIC S. aureus ATCC 9144 [3, 7]: 4 µg/mL (≈ 3.77 µM); MIC S. aureus ATCC 9144 [3, 8]: 4 µg/mL (≈ 3.77 µM); MIC S. aureus ATCC 9144 [3, 9]: 4 µg/mL (≈ 3.77 µM); MIC S. aureus ATCC 9144 [3, 10]: 8 µg/mL (≈ 7.55 µM); MIC S. aureus ATCC 9144 [3, 11]: 4 µg/mL (≈ 3.77 µM); MIC S. aureus ATCC 9144 [3, 12]: 4 µg/mL (≈ 3.77 µM); MIC S. aureus ATCC 9144 [3, 13]: 4 µg/mL (≈ 3.77 µM); Antimicrobial Activity (MIC) E. coli [4]: 64 µg/mL; MIC E. coli ATCC 25922 [4, 5]: 64 µg/mL (≈ 60.4 µM); MIC E. coli ATCC 25922 [4, 6]: 64 µg/mL (≈ 60.4 µM); MIC E. coli ATCC 25922 [4, 7]: 64 µg/mL (≈ 60.4 µM); MIC E. coli ATCC 25922 [4, 8]: 64 µg/mL (≈ 60.4 µM); MIC E. coli ATCC 25922 [4, 9]: 64 µg/mL (≈ 60.4 µM); MIC E. coli ATCC 25922 [4, 10]: 32 µg/mL (≈ 30.2 µM); MIC E. coli ATCC 25922 [4, 11]: 64 µg/mL (≈ 60.4 µM); MIC E. coli ATCC 25922 [4, 12]: 64 µg/mL (≈ 60.4 µM); MIC E. coli ATCC 25922 [4, 13]: 32 µg/mL (≈ 30.2 µM)
4 | N3-PEG400-RWWRF [1b, azidopeptide N3-PEG400-RWWRF, PEG400-linked, amidated C-terminus] | > 256 | > 256 | > 256 | > 256 | > 256 | > 256 | > 256 | > 256 | > 256 | 128 | 128 | 64 | 128 | 128 | 128 | 128 | 128 | 64 | 128 | 128 | Antimicrobial Activity (MIC) P. aeruginosa [1, 14]: >256 µg/mL; Antimicrobial Activity (MIC) S. epidermidis [2, 15]: 128 µg/mL; Antimicrobial Activity (MIC) S. aureus [3, 16]: 128 µg/mL; MIC S. aureus ATCC 9144 [3, 7]: 128 µg/mL; MIC S. aureus ATCC 9144 [3, 8]: 128 µg/mL; MIC S. aureus ATCC 9144 [3, 9]: 128 µg/mL; MIC S. aureus ATCC 9144 [3, 10]: 128 µg/mL; MIC S. aureus ATCC 9144 [3, 11]: 128 µg/mL; MIC S. aureus ATCC 9144 [3, 12]: 128 µg/mL; MIC S. aureus ATCC 9144 [3, 13]: 128 µg/mL; Antimicrobial Activity (MIC) E. coli [4, 14]: >256 µg/mL; MIC E. coli ATCC 25922 [4, 5]: > 256 µg/mL; MIC E. coli ATCC 25922 [4, 6]: > 256 µg/mL; MIC E. coli ATCC 25922 [4, 7]: > 256 µg/mL; MIC E. coli ATCC 25922 [4, 8]: > 256 µg/mL; MIC E. coli ATCC 25922 [4, 9]: > 256 µg/mL; MIC E. coli ATCC 25922 [4, 10]: > 256 µg/mL; MIC E. coli ATCC 25922 [4, 11]: > 256 µg/mL; MIC E. coli ATCC 25922 [4, 12]: > 256 µg/mL; MIC E. coli ATCC 25922 [4, 13]: > 256 µg/mL
